Laboratory results reported in patent US20250177340A1, “Tartaric Acid Analogs and Uses Thereof” (Lapix Therapeutics, Inc., priority 2021, published 2025).

Key:
KLRG-1 = experiment: Percent KLRG-1+/CD8+ T-cells in splenocytes after a single dose, melanoma murine model; assay type: in vivo, mice
Protocol: (§1) The pharmacodynamic (PD) effects of a single IV dose of Compound B in a melanoma murine model were evaluated. B16F10 melanoma cells were grown in RPMI 1640 media supplemented with 10% FBS and antibiotics (penicillin/streptomycin) using T75 flasks. When cells reached 70-80% confluency, they were treated with 3 ml of 0.25% Trypsin/EDTA. Afterward, detached cells were harvested. A single-cell suspension was prepared in PBS. An IV injection of 10^5 cells in mice marked day −3 of the experiment.
(§2) Animals were housed four per cage, and had access to food and water ad libitum. Compound B was dissolved in sterile PBS, and pH was adjusted to approximately 7.5. Sterile PBS served as control.
(§3) Three days after the IV injection of melanoma cells, animals in the baseline group (n=3) were sacrificed and their spleens were collected for KLRG-1, CTLA-4, and PD-1 analysis. At each predetermined time-point (24, 48, and 120 hours after dosing) three animals from each group were sacrificed for splenocyte analysis of KLRG-1, CTLA-4, and PD-1 expression levels, and expression levels were compared to baseline.
(§4) Spleens collected for splenocyte analysis were prepared into a single-cell suspension for cellular phenotyping by flow cytometry. Cells were stained and gated for CD8. Percent KLRG-1+, CTLA-4+, and PD-1+ CD8+ T-cells were evaluated using flow cytometry.
(§5) The PD effects of a single IV dose of Compound C were evaluated in a melanoma murine model conducted as described in Example 10. […] This study also evaluated whether Compound C was pharmacodynamically active orally.
(§6) In a prior study, Compound C was dosed at 1 mg IV QD for seven days. […] A single PO dose was chosen to confirm oral activity of Compound C. Compound C was dissolved in DMSO, and then diluted in sterile PBS. pH was adjusted to approximately 7.5.
(§7) The oral and intravenous PD effects of a single dose of Compound E were evaluated in a melanoma murine model conducted as described in Example 10.
(§8) Compound E was dissolved in DMSO, and then diluted in sterile PBS. pH was adjusted to approximately 7.5.

murine CD8+ T cells = experiment: Murine CD8+ T-cell proliferation (CFSE), Example 6; assay type: cell-based, C57BL/6 mice; conditions: 30 mM, ConA 10 μg/ml
Protocol: Preparation of test materials: TTA, compound A and compound B were formulated in RPMI media under aseptic conditions. The pH was adjusted to approximately 7.5 before dosing cells.
Tissue culture and dosing: Splenocytes of C57BL/6 mice were stained with CFSE and prepared, cultured, and dosed. Cells were seeded at 1×10^5 cells/well in a 96-well round-bottomed plate.
Controls: Two controls were used. A negative control dosed with 10 ng/ml IL2 was used, and a positive control dosed with 20 μg/ml ConA and 10 ng/ml IL2 was used.
Treatment: After ConA stimulation (10 μg/ml), cells were dosed with 30 mM compound A, B or C with or without 0.1 mM 30:70 PS:DMPC liposomes. All wells were dosed with 10 ng/ml of IL-2.

B16F10 melanoma cells = experiment: Tumor growth inhibition and overall survival, SC B16F10 melanoma (Example 13); assay type: in vivo, mice; conditions: Compound B 4 mg/mouse PO QD x7, Compound C 2.5 mg/mouse IV QD; for animals showing any tumor growth: by day 14; for animals with measurable tumors: by day 16; for tumor volume versus placebo group: duration of the study
Protocol: This study was designed to evaluate the effects of Compound B and Compound C on tumor growth and the overall survival of animals implanted SC with 10^5 melanoma cells. Furthermore, ex vivo analysis of splenocytes at the end of dosing was used to evaluate change in the T-cell population and function. FIG. 8A is a diagram of the study design.
Animals were housed four per cage and had access to food and water ad libitum. Compound B was dissolved in sterile PBS, and pH was adjusted to approximately 7.5. Compound C was first dissolved in DMSO before diluting in sterile PBS. Sterile PBS was used as a control. Compound B was dosed at 4 mg/mouse PO QD. This dose was expected to result in an exposure equivalent to a 1 mg/mouse IV dose. Compound C was dosed at 2.5 mg/mouse IV.
B16F10 melanoma cells were grown in RPMI 1640 media supplemented with 10% FBS and antibiotics (penicillin/streptomycin) using T75 flasks. When cells reached 70-80% confluency, they were treated with 3 ml of 0.25% trypsin/EDTA. Detached cells were harvested. A single-cell suspension was prepared in PBS. A dorsal SC injection of 10^5 cells in mice marked day 0 of the experiment. Animals were monitored daily, and tumors were measured twice a week.
For tumor growth inhibition, animals were divided into 3 groups. The control group received an IV injection of PBS to match the start time, dosing volume, and dosing frequency of the Compound C treatment group. The treatment group received 100 μl of 4 mg/mouse PO QD of Compound B for 7 days starting at day 7 after tumor implantation, or 2.5 mg/mouse IV QD of Compound C. The endpoint was reached when the tumor reached 1 cm^3. Tumor volume was calculated using the following formula:
Tumor volume=length×width×½ width
The mice were also monitored for survival, and were euthanized when the tumor size reached the predefined endpoint of 1 cm^3.

Granzyme B and IFN-γ = experiment: Dose-response of GranzymeB/IFN-γ double positivity in murine CD8+ T-cells, Example 9; assay type: cell-based, C57BL/6 mice; conditions: Mus musculus, T-cell; for Emax: FIG. 4, 5-parameter fit, read-out: maximal response (GzmB/IFN-γ double positive CD8+ T-cells)
Protocol: A dose-response analysis of compounds B-E in murine CD8+ T-cells was conducted to evaluate the effect of dose on GranzymeB/IFN-γ double positivity.
Compound C, D and E were first dissolved in a small volume of DMSO before diluting to the final desired concentration.
Splenocytes from naïve C57BL/6 mice were stained with CFSE, prepared, cultured, and dosed. Cells were seeded at 2×10^5 cells/well. Negative control was dosed with 10 ng/ml IL-2. After ConA stimulation (10 μg/ml), cells were dosed with log 3 dilution of each compound from 3×10^−9 to 30 µM in triplicates. All wells were dosed with 10 ng/ml of IL-2.
Flow cytometer analysis was performed to assess percent CD8+ T-cells and percent activation by double staining for Granzyme B (GzmB) and IFN-γ as described in Example 7. Concentration versus response curve was fitted to a 4- or 5-parameter log-logistic model using the “dre” package in “R”. Both EC50 and EC90 were obtained by model fitting.

PD-1 = experiment: Percent PD-1+/CD8+ T-cells in splenocytes after a single dose, melanoma murine model; assay type: in vivo, mice
Protocol: as §1, §2, §3, §4, §5, §6, §7, §8

[1] = 0.14 mg/mouse IV single dose, 24 h
[2] = 0.14 mg/mouse IV single dose, 48 h
[3] = 0.14 mg/mouse IV single dose, 120 h
[4] = 0.7 mg/mouse IV single dose, 24 h
[5] = 0.7 mg/mouse IV single dose, 48 h
[6] = 0.7 mg/mouse IV single dose, 120 h
[7] = 1.4 mg/mouse IV single dose, 24 h
[8] = 1.4 mg/mouse IV single dose, 48 h
[9] = 1.4 mg/mouse IV single dose, 120 h
[10] = 0.025 mg/mouse IV single dose, 24 h
[11] = 0.1 mg/mouse IV single dose, 24 h
[12] = 0.25 mg/mouse IV single dose, 24 h
[13] = 1 mg/mouse IV single dose, 24 h
[14] = 2.5 mg/mouse po single dose, 24 h
[15] = remaining groups (0.025, 0.1 mg IV, 2.5 mg PO)

Structure (SMILES): O=C(O)[C@H](O)[C@@H](O)C(=O)OCCCc1ccccc1 [Compound B, (2R,3R)-2,3-dihydroxy-4-oxo-4-(3-phenylpropoxy)butanoic acid]
- KLRG-1+/CD8+ T-cells, mean (KLRG-1; [1]): 6.2%
- KLRG-1+/CD8+ T-cells, mean (KLRG-1; [2]): 4.8%
- KLRG-1+/CD8+ T-cells, mean (KLRG-1; [3]): 11.4%
- KLRG-1+/CD8+ T-cells, mean (KLRG-1; [4]): 6.5%
- KLRG-1+/CD8+ T-cells, mean (KLRG-1; [5]): 3.0%
- KLRG-1+/CD8+ T-cells, mean (KLRG-1; [6]): 11.7%
- KLRG-1+/CD8+ T-cells, mean (KLRG-1; [7]): 7.6%
- KLRG-1+/CD8+ T-cells, mean (KLRG-1; [8]): 2.5%
- KLRG-1+/CD8+ T-cells, mean (KLRG-1; [9]): 11.3%
- time of nadir of exhaustion markers after dosing (KLRG-1; single dose, KLRG-1, CTLA-4, PD-1): 48 h
- percent of CD8+ T-cell proliferation (murine CD8+ T cells; in absence of PS): 78.3%
- animals did not survive the study (B16F10 melanoma cells): 3/7
- animals survived tumor-free for the duration of the study (B16F10 melanoma cells): 3/7
- animals survived with a tumor (to day 28) (B16F10 melanoma cells): 1/7
- survival (B16F10 melanoma cells): 40%
- animals showing any tumor growth (B16F10 melanoma cells): 3/7
- animals with measurable tumors (B16F10 melanoma cells): 3
- tumor volume versus placebo group (B16F10 melanoma cells): statistically lower
- EC50 (Granzyme B and IFN-γ; 4-parameter model): 9.8 nM
- EC90 (Granzyme B and IFN-γ; 4-parameter model): 950 nM
- EC50 (Granzyme B and IFN-γ; 5-parameter model): 11 nM
- EC90 (Granzyme B and IFN-γ; 5-parameter model): 3000 nM
- Emax (Granzyme B and IFN-γ): ~60%
- PD-1+/CD8+ T-cells, mean (PD-1; [1]): 38.6%
- PD-1+/CD8+ T-cells, mean (PD-1; [2]): 32.5%
- PD-1+/CD8+ T-cells, mean (PD-1; [3]): 59.7%
- PD-1+/CD8+ T-cells, mean (PD-1; [4]): 44.5%
- PD-1+/CD8+ T-cells, mean (PD-1; [5]): 26.7%
- PD-1+/CD8+ T-cells, mean (PD-1; [6]): 58.2%
- reduction in PD-1+/CD8+ T-cell compared to control (PD-1; 1.2 mg group, day 5): 41.8%
- PD-1+/CD8+ T-cells, mean (PD-1; [7]): 42.3%
- PD-1+/CD8+ T-cells, mean (PD-1; [8]): 30.4%
- PD-1+/CD8+ T-cells, mean (PD-1; [9]): 34.7%

Structure (SMILES): O=C(O)[C@H](O)[C@@H](O)C(=O)OCCC(c1ccccc1)c1ccccc1 [Compound C, (2R,3R)-4-(3,3-diphenylpropoxy)-2,3-dihydroxy-4-oxobutanoic acid]
- KLRG-1+/CD8+ T-cells, mean (KLRG-1; [10]): 4.9%
- KLRG-1+/CD8+ T-cells, mean (KLRG-1; [11]): 4.1%
- KLRG-1+/CD8+ T-cells, mean (KLRG-1; [12]): 3.4%
- KLRG-1+/CD8+ T-cells, mean (KLRG-1; [13]): 3.3%
- oral pharmacodynamic activity (KLRG-1; 2.5 mg PO single dose): not orally effective at the tested dose
- KLRG-1+/CD8+ T-cells, mean (KLRG-1; [14]): 4.6%
- decrease in KLRG-1+/CD8+ T-cells compared to baseline (KLRG-1; 0.25- and 1-mg IV groups): approximately 15%
- decrease in KLRG-1+/CD8+ T-cells compared to time match control (KLRG-1; 0.25- and 1-mg IV groups): approximately 31%
- change in KLRG-1+/CD8+ T-cells compared to baseline or control (KLRG-1; [15]): No meaningful changes
- percent of CD8+ T-cell proliferation (murine CD8+ T cells; in absence of PS): 84.5%
- percent of CD8+ T-cell proliferation (murine CD8+ T cells; in the presence of 0.1 mM PS): 55.5%
- animals did not survive the study (B16F10 melanoma cells): 2/8
- animals survived tumor-free for the duration of the study (B16F10 melanoma cells): 5/8
- animals survived with a tumor (to day 28) (B16F10 melanoma cells): 1/8
- survival (B16F10 melanoma cells): 80%
- animals showing any tumor growth (B16F10 melanoma cells): 0/8
- animals with measurable tumors (B16F10 melanoma cells): 0
- tumor volume versus placebo group (B16F10 melanoma cells): statistically lower
- EC50 (Granzyme B and IFN-γ; 4-parameter model): 43 nM
- EC90 (Granzyme B and IFN-γ; 4-parameter model): 29000 nM
- EC50 (Granzyme B and IFN-γ; 5-parameter model): 42 nM
- EC90 (Granzyme B and IFN-γ; 5-parameter model): 28000 nM
- Emax (Granzyme B and IFN-γ): ~60%
- PD-1+/CD8+ T-cells, mean (PD-1; [10]): 35%
- PD-1+/CD8+ T-cells, mean (PD-1; [11]): 34%
- PD-1+/CD8+ T-cells, mean (PD-1; [12]): 27%
- PD-1+/CD8+ T-cells, mean (PD-1; [13]): 26%
- PD-1+/CD8+ T-cells, mean (PD-1; [14]): 33%
- decrease in PD-1+/CD8+ T-cells compared to baseline (PD-1; 0.25- and 1-mg IV groups): approximately 20%
- decrease in PD-1+/CD8+ T-cells compared to time match control (PD-1; 0.25- and 1-mg IV groups): approximately 30%
- change in PD-1+/CD8+ T-cells compared to baseline or control (PD-1; [15]): No meaningful changes
